Measured values as given in US4921850A, “3-propenylcephem derivative” (Eisai Co., Ltd., priority 1986, dated 1990).
≈ marks a conversion by molar mass, not a printed value. Where two headings read alike, the source gives them in different places.

What was measured:
Assay in all cases: Anti-bacterial activity (MIC), agar dilution
Assay type in all cases: cell-based
Kleb. pneumoniae EK-6 = conditions: Kleb. pneumoniae EK-6, agar dilution, about 10^6 CFU/ml, 18 hours, 37° C.
Description: (§1) MIC (μg/ml) were determined by an agar dilution method [Chemotherapy (Japan), 29, 76-79, 1981]. Overnight cultures of the bacterial strains in Mueller-Hinton broth were diluted to final concentration of about 10^6 CFU/ml, and 5 μl of each bacterial suspension was spotted onto Mueller-Hinton agar plates that contained twofold serial dilutions of antibiotics. MICs were measured after incubation for 18 hours at 37° C.

Escher. coli NIHJ = conditions: Escher. coli NIHJ, agar dilution, about 10^6 CFU/ml, 18 hours, 37° C.
Description: as §1

Ser. marcescens ES-75 = conditions: Ser. marcescens ES-75, agar dilution, about 10^6 CFU/ml, 18 hours, 37° C.
Description: as §1

Pseud. aeruginosa EP-01 = conditions: Pseud. aeruginosa EP-01, agar dilution, about 10^6 CFU/ml, 18 hours, 37° C.
Description: as §1

Staph. aureus 209-P = conditions: Staph. aureus 209-P, agar dilution, about 10^6 CFU/ml, 18 hours, 37° C.
Description: as §1

[1] = test system: Morganella morganii EP-14; conditions: about 10^6 CFU/ml, 37° C.
Description: as §1

[2] = Klebsiella pneumoniae, EK6, 18 h, read-out: MIC
[3] = Escherichia coli, 18 h, read-out: MIC
[4] = Serratia marcescens, ES75, 18 h, read-out: MIC
[5] = Pseudomonas aeruginosa, EP01, 18 h, read-out: MIC
[6] = Staphylococcus aureus, 209P, 18 h, read-out: MIC
[7] = Morganella morganii, EP14, 18 h, read-out: MIC

Compound | MIC (Kleb. pneumoniae EK-6; [2]) [µg/mL] | MIC (Escher. coli NIHJ; [3]) [µg/mL] | MIC (Ser. marcescens ES-75; [4]) [µg/mL] | MIC (Pseud. aeruginosa EP-01; [5]) [µg/mL] | MIC (Staph. aureus 209-P; [6]) [µg/mL] | MIC [1, 7] [µg/mL] | MIC (Kleb. pneumoniae EK-6) [µg/mL] | MIC (Escher. coli NIHJ) [µg/mL] | MIC (Ser. marcescens ES-75) [µg/mL] | MIC (Pseud. aeruginosa EP-01) [µg/mL] | MIC (Staph. aureus 209-P) [µg/mL] | MIC ([1]; 18 hours) [µg/mL]
Nc1nc(/C(=N/OCF)C(=O)N[C@@H]2C(=O)N3C(C(=O)[O-])=C(/C=C/C[N+]4(CCO)CC=C(C=NO)CC4)CS[C@H]23)ns1 (stereo partly drawn) [Example 42] | 0.05 (≈ 0.0819 µM) | ≤ 0.025 | ≤ 0.025 | 1.56 (≈ 2.55 µM) | 0.2 (≈ 0.328 µM) | ≤ 0.025 |  |  |  |  |  | 
NC(=O)C1=CC[N+](C/C=C/C2=C(C(=O)[O-])N3C(=O)[C@@H](NC(=O)/C(=N\OCF)c4nsc(N)n4)[C@H]3SC2)(CCO)CC1 (stereo partly drawn) [Example 43] | ≤ 0.025 | ≤ 0.025 | ≤ 0.025 | 0.8 (≈ 1.31 µM) | 0.2 (≈ 0.328 µM) | ≤ 0.025 |  |  |  |  |  | 
CC[N+](C)(C/C=C/C1=C(C(=O)[O-])N2C(=O)[C@@H](NC(=O)/C(=N\OCF)c3nsc(N)n3)[C@H]2SC1)CCO (stereo partly drawn) [Example 44] | ≤ 0.025 | 0.05 (≈ 0.092 µM) | 0.1 (≈ 0.184 µM) | 1.56 (≈ 2.87 µM) | 0.4 (≈ 0.736 µM) | 0.05 (≈ 0.092 µM) |  |  |  |  |  | 
CC[N+](C)(CC#N)C/C=C/C1=C(C(=O)[O-])N2C(=O)[C@@H](NC(=O)/C(=N\OCF)c3nsc(N)n3)[C@H]2SC1 (stereo partly drawn) [Example 45] | ≤ 0.025 | ≤ 0.025 | 0.1 (≈ 0.186 µM) | 0.8 (≈ 1.49 µM) | 0.4 (≈ 0.743 µM) | ≤ 0.025 |  |  |  |  |  | 
CC(=O)NCC[N+](C/C=C/C1=C(C(=O)[O-])N2C(=O)[C@@H](NC(=O)/C(=N\OCF)c3nsc(N)n3)[C@H]2SC1)(CCO)CCO [Example 51] | 0.05 (≈ 0.0793 µM) | 0.05 (≈ 0.0793 µM) | 0.05 (≈ 0.0793 µM) | 1.56 (≈ 2.47 µM) | 0.4 (≈ 0.634 µM) | 0.05 (≈ 0.0793 µM) |  |  |  |  |  | 
C[N+](C)(C/C=C/C1=C(C(=O)[O-])N2C(=O)[C@@H](NC(=O)/C(=N\OCF)c3nsc(N)n3)[C@H]2SC1)NC(N)=O [Example 53] | 0.05 (≈ 0.092 µM) | 0.05 (≈ 0.092 µM) | 0.1 (≈ 0.184 µM) | 0.8 (≈ 1.47 µM) | 0.8 (≈ 1.47 µM) | 0.05 (≈ 0.092 µM) |  |  |  |  |  | 
CNC(=O)C[N+](C)(C)C/C=C/C1=C(C(=O)[O-])N2C(=O)[C@@H](NC(=O)/C(=N\OCF)c3nsc(N)n3)[C@H]2SC1 [Example 55] | ≤ 0.025 | ≤ 0.025 | ≤ 0.025 | 0.4 (≈ 0.719 µM) | 0.2 (≈ 0.359 µM) | ≤ 0.025 |  |  |  |  |  | 
CN(C)C(=O)C[N+](C)(C)C/C=C/C1=C(C(=O)[O-])N2C(=O)[C@@H](NC(=O)/C(=N\OCF)c3nsc(N)n3)[C@H]2SC1 [Example 56] | 0.05 (≈ 0.0876 µM) | 0.05 (≈ 0.0876 µM) | 0.1 (≈ 0.175 µM) | 1.56 (≈ 2.73 µM) | 0.4 (≈ 0.701 µM) | 0.05 (≈ 0.0876 µM) |  |  |  |  |  | 
CNC(=O)[C@H](C)[N+](C)(C)C/C=C/C1=C(C(=O)[O-])N2C(=O)[C@@H](NC(=O)/C(=N\OCF)c3nsc(N)n3)[C@H]2SC1 [Example 58] | 0.05 (≈ 0.0876 µM) | ≤ 0.025 | 0.05 (≈ 0.0876 µM) | 1.56 (≈ 2.73 µM) | 0.2 (≈ 0.35 µM) | 0.05 (≈ 0.0876 µM) |  |  |  |  |  | 
CNC(=O)[C@@H](C)[N+](C)(C)C/C=C/C1=C(C(=O)[O-])N2C(=O)[C@@H](NC(=O)/C(=N\OCF)c3nsc(N)n3)[C@H]2SC1 [Example 59] | ≤ 0.025 | ≤ 0.025 | ≤ 0.025 | 1.56 (≈ 2.73 µM) | 0.4 (≈ 0.701 µM) | ≤ 0.025 |  |  |  |  |  | 
C[N+](C)(C/C=C/C1=C(C(=O)[O-])N2C(=O)[C@@H](NC(=O)/C(=N\OCF)c3nsc(N)n3)[C@H]2SC1)[C@@H](CC(N)=O)C(N)=O [Example 60] | 0.05 (≈ 0.0834 µM) | ≤ 0.025 | ≤ 0.025 | 1.56 (≈ 2.6 µM) | 0.2 (≈ 0.334 µM) | ≤ 0.025 |  |  |  |  |  | 
C[N+](C)(C/C=C/C1=C(C(=O)[O-])N2C(=O)[C@@H](NC(=O)/C(=N\OCF)c3nsc(N)n3)[C@H]2SC1)[C@H](CC(N)=O)C(N)=O [Example 61] | 0.05 (≈ 0.0834 µM) | 0.1 (≈ 0.167 µM) | 0.05 (≈ 0.0834 µM) | 1.56 (≈ 2.6 µM) | 0.4 (≈ 0.667 µM) | 0.1 (≈ 0.167 µM) |  |  |  |  |  | 
C[N+](C)(C/C=C/C1=C(C(=O)[O-])N2C(=O)[C@@H](NC(=O)/C(=N\OCF)c3nsc(N)n3)[C@H]2SC1)[C@@H](CO)C(N)=O [Example 62] | ≤ 0.025 | ≤ 0.025 | ≤ 0.025 | 0.4 (≈ 0.699 µM) | 0.2 (≈ 0.349 µM) | ≤ 0.025 |  |  |  |  |  | 
C[N+](C)(C/C=C/C1=C(C(=O)[O-])N2C(=O)[C@@H](NC(=O)/C(=N\OCF)c3nsc(N)n3)[C@H]2SC1)[C@H](CO)C(=O)NCO [Example 63] | 0.05 (≈ 0.083 µM) | ≤ 0.025 | ≤ 0.025 | 0.8 (≈ 1.33 µM) | 0.4 (≈ 0.664 µM) | ≤ 0.025 |  |  |  |  |  | 
C[N+](C)(C/C=C/C1=C(C(=O)[O-])N2C(=O)[C@@H](NC(=O)/C(=N\OCF)c3nsc(N)n3)[C@H]2SC1)CCO [Example 64] | ≤ 0.025 | ≤ 0.025 | 0.1 (≈ 0.189 µM) | 0.8 (≈ 1.51 µM) | 0.2 (≈ 0.378 µM) | ≤ 0.025 |  |  |  |  |  | 
CC(O)C[N+](C)(C)CC=CC1=C(C(=O)[O-])N2C(=O)C(NC(=O)C(=NOCF)c3nsc(N)n3)C2SC1 (stereo not drawn) [Example 65] | ≤ 0.025 | ≤ 0.025 | 0.05 (≈ 0.092 µM) | 0.8 (≈ 1.47 µM) | 0.4 (≈ 0.736 µM) | ≤ 0.025 |  |  |  |  |  | 
CC(O)C[N+](C)(C)CC=CC1=C(C(=O)[O-])N2C(=O)C(NC(=O)C(=NOCF)c3nsc(N)n3)C2SC1 (stereo not drawn) [Example 66] |  |  |  |  |  |  | ≤ 0.025 | ≤ 0.025 | ≤ 0.025 | 0.8 (≈ 1.47 µM) | 0.4 (≈ 0.736 µM) | ≤ 0.025
C[C@H](CO)[N+](C)(C)C/C=C/C1=C(C(=O)[O-])N2C(=O)[C@@H](NC(=O)/C(=N\OCF)c3nsc(N)n3)[C@H]2SC1 [Example 68] | ≤ 0.025 | ≤ 0.025 | ≤ 0.025 | 0.8 (≈ 1.47 µM) | 0.2 (≈ 0.368 µM) | ≤ 0.025 |  |  |  |  |  | 
CC(C)(CO)[N+](C)(C)C/C=C/C1=C(C(=O)[O-])N2C(=O)[C@@H](NC(=O)/C(=N\OCF)c3nsc(N)n3)[C@H]2SC1 [Example 69] | ≤ 0.025 | ≤ 0.025 | 0.05 (≈ 0.0897 µM) | 0.8 (≈ 1.43 µM) | 0.2 (≈ 0.359 µM) | ≤ 0.025 |  |  |  |  |  | 
C[N+](C)(C/C=C/C1=C(C(=O)[O-])N2C(=O)[C@@H](NC(=O)/C(=N\OCF)c3nsc(N)n3)[C@H]2SC1)C(CO)(CO)CO [Example 70] | ≤ 0.025 | ≤ 0.025 | 0.1 (≈ 0.17 µM) | 0.8 (≈ 1.36 µM) | 0.1 (≈ 0.17 µM) | ≤ 0.025 |  |  |  |  |  | 
C[N+](C)(C/C=C/C1=C(C(=O)[O-])N2C(=O)[C@@H](NC(=O)/C(=N\OCF)c3nsc(N)n3)[C@H]2SC1)CC(=O)NO [Example 72] | ≤ 0.025 | ≤ 0.025 | ≤ 0.025 | 0.8 (≈ 1.43 µM) | 0.4 (≈ 0.716 µM) | ≤ 0.025 |  |  |  |  |  | 
C[N+](C)(C/C=C/C1=C(C(=O)[O-])N2C(=O)[C@@H](NC(=O)/C(=N\OCF)c3nsc(N)n3)[C@H]2SC1)CC(=O)NCC(N)=O [Example 73] | 0.05 (≈ 0.0834 µM) | 0.05 (≈ 0.0834 µM) | 0.05 (≈ 0.0834 µM) | 1.56 (≈ 2.6 µM) | 0.4 (≈ 0.667 µM) | 0.1 (≈ 0.167 µM) |  |  |  |  |  | 
C[N+](C)(C/C=C/C1=C(C(=O)[O-])N2C(=O)[C@@H](NC(=O)/C(=N\OCF)c3nsc(N)n3)[C@H]2SC1)CC(=O)N(CCO)CCO [Example 74] | 0.05 (≈ 0.0793 µM) | 0.1 (≈ 0.159 µM) | 0.4 (≈ 0.634 µM) | 1.56 (≈ 2.47 µM) | 0.8 (≈ 1.27 µM) | 0.1 (≈ 0.159 µM) |  |  |  |  |  | 
C[N+](C)(C/C=C/C1=C(C(=O)[O-])N2C(=O)[C@@H](NC(=O)/C(=N\OCF)c3nsc(N)n3)[C@H]2SC1)CC(=O)NCCO [Example 75] | 0.05 (≈ 0.0852 µM) | 0.05 (≈ 0.0852 µM) | 0.2 (≈ 0.341 µM) | 1.56 (≈ 2.66 µM) | 0.4 (≈ 0.682 µM) | 0.05 (≈ 0.0852 µM) |  |  |  |  |  | 
CN(C)CCC[N+](C)(C)C/C=C/C1=C(C(=O)[O-])N2C(=O)[C@@H](NC(=O)/C(=N\OCF)c3nsc(N)n3)[C@H]2SC1 [Example 77] | 0.2 (≈ 0.35 µM) | 0.2 (≈ 0.35 µM) | 0.2 (≈ 0.35 µM) | 3.13 (≈ 5.48 µM) | 0.4 (≈ 0.701 µM) | 0.4 (≈ 0.701 µM) |  |  |  |  |  | 
CN(C)CC(O)C[N+](C)(C)C/C=C/C1=C(C(=O)[O-])N2C(=O)[C@@H](NC(=O)/C(=N\OCF)c3nsc(N)n3)[C@H]2SC1 (stereo partly drawn) [Example 78] | 0.2 (≈ 0.341 µM) | 0.2 (≈ 0.341 µM) | 0.2 (≈ 0.341 µM) | 3.13 (≈ 5.34 µM) | 0.4 (≈ 0.682 µM) | 0.2 (≈ 0.341 µM) |  |  |  |  |  | 
Cc1c(CCO)sc[n+]1C/C=C/C1=C(C(=O)[O-])N2C(=O)[C@@H](NC(=O)/C(=N\OCF)c3nsc(N)n3)[C@H]2SC1 [Example 81] | ≤ 0.025 | ≤ 0.025 | ≤ 0.025 | 1.56 (≈ 2.67 µM) | 0.2 (≈ 0.343 µM) | ≤ 0.025 |  |  |  |  |  | 
NC(=O)Cc1cccc[n+]1C/C=C/C1=C(C(=O)[O-])N2C(=O)[C@@H](NC(=O)/C(=N\OCF)c3nsc(N)n3)[C@H]2SC1 [Example 82] | ≤ 0.025 | ≤ 0.025 | 0.05 (≈ 0.0867 µM) | 1.56 (≈ 2.71 µM) | 0.4 (≈ 0.694 µM) | ≤ 0.025 |  |  |  |  |  | 
